Data: ChEMBL document CHEMBL1201862, “PubChem BioAssay data set” (2004)
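Dose response: 5 concentrations. Exposure: 48 h. Format: 96-well plates. Endpoint: linear interpolation; highest concentration if not reached. Here, GI50 denotes the concentration required for 50% inhibition of growth.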 Active and inactive are the calls of the source. No stated cut-off is given here; in the data, active = GI50 up to about 1.1 µM and inactive = higher.

Assays:
Assay in all cases: NCI tumour cell line growth inhibition, 48 h
786-0 = system: 786-0
A498 = system: A498
A549 = system: A549
ACHN = system: ACHN
BT-549 = system: BT-549
CCRF-CEM = system: CCRF-CEM
COLO 205 = system: COLO 205
DU-145 = system: DU-145
EKVX = system: EKVX
HCC 2998 = system: HCC 2998
HCT-116 = system: HCT-116
HCT-15 = system: HCT-15
HL-60 = system: HL-60
HOP-62 = system: HOP-62
HOP-92 = system: HOP-92
HT-29 = system: HT-29
Hs-578T = system: Hs-578T
IGROV-1 = system: IGROV-1
K562 = system: K562
KM12 = system: KM12
LOX IMVI = system: LOX IMVI
MCF7 = system: MCF7
MDA-MB-435 = system: MDA-MB-435
MOLT-4 = system: MOLT-4
Malme-3M = system: Malme-3M
NCI-H226 = system: NCI-H226
NCI-H23 = system: NCI-H23
NCI-H460 = system: NCI-H460
NCI-H522 = system: NCI-H522
NCI/ADR-RES = system: NCI/ADR-RES
OVCAR-3 = system: OVCAR-3
OVCAR-4 = system: OVCAR-4
OVCAR-8 = system: OVCAR-8
PC-3 = system: PC-3
RPMI-8226 = system: RPMI-8226
RXF 393 = system: RXF 393
SF-268 = system: SF-268
SF-295 = system: SF-295
SF-539 = system: SF-539
SK-MEL-28 = system: SK-MEL-28
SK-MEL-5 = system: SK-MEL-5
SNB-19 = system: SNB-19
SNB-75 = system: SNB-75
SR = system: SR
SW-620 = system: SW-620
T47D = system: T47D
TK-10 = system: TK-10
U-251 = system: U-251
UACC-257 = system: UACC-257
UACC-62 = system: UACC-62
UO-31 = system: UO-31

**Q.** `Cc1cc2cc3c(Cl)c(CCCl)c(C)nc3cc2c(Cl)c1CCCl` was tested. Which GI50 (786-0) did it give?
**A.** The GI50 was 24.5 µM (inactive).

**Q.** And the GI50 (A498)?
**A.** The GI50 was 19.2 µM (inactive).

**Q.** What about the GI50 (A549) of the same molecule?
**A.** Its GI50 is 17.8 µM (inactive).

**Q.** What about the GI50 (ACHN) of the same molecule?
**A.** The GI50 was 20.9 µM (inactive).

**Q.** What about the GI50 (BT-549) of the same molecule?
**A.** Its GI50 is 19.9 µM (inactive).

**Q.** What about the GI50 (CCRF-CEM) of the same molecule?
**A.** Its GI50 is 23.4 µM (inactive).

**Q.** And the GI50 (COLO 205)?
**A.** The GI50 was 16.6 µM (inactive).

**Q.** And the GI50 (DU-145)?
**A.** Its GI50 is 21.6 µM (inactive).

**Q.** What about the GI50 (EKVX) of the same molecule?
**A.** The GI50 was 2.87 µM (inactive).

**Q.** And the GI50 (HCC 2998)?
**A.** The GI50 was 17.5 µM (inactive).

**Q.** What about the GI50 (HCT-116) of the same molecule?
**A.** Its GI50 is 15.8 µM (inactive).

**Q.** What about the GI50 (HCT-15) of the same molecule?
**A.** Its GI50 is 24.9 µM.

**Q.** And the GI50 (HL-60)?
**A.** The GI50 was 11.5 µM (inactive).

**Q.** And the GI50 (HOP-62)?
**A.** Its GI50 is 13.8 µM (inactive).

**Q.** And the GI50 (HOP-92)?
**A.** The GI50 was 13.9 µM (inactive).

**Q.** What about the GI50 (HT-29) of the same molecule?
**A.** The GI50 was 18.5 µM (inactive).

**Q.** What about the GI50 (Hs-578T) of the same molecule?
**A.** The GI50 was 9.84 µM (inactive).

**Q.** And the GI50 (IGROV-1)?
**A.** Its GI50 is 26.2 µM (inactive).

**Q.** What about the GI50 (K562) of the same molecule?
**A.** Its GI50 is 17.4 µM (inactive).

**Q.** What about the GI50 (KM12) of the same molecule?
**A.** The GI50 was 17.9 µM (inactive).

**Q.** What about the GI50 (LOX IMVI) of the same molecule?
**A.** Its GI50 is 15.2 µM (inactive).

**Q.** What about the GI50 (MCF7) of the same molecule?
**A.** Its GI50 is 26.9 µM (inactive).

**Q.** And the GI50 (MDA-MB-435)?
**A.** The GI50 was 15.6 µM (inactive).

**Q.** What about the GI50 (MOLT-4) of the same molecule?
**A.** The GI50 was 16 µM (inactive).

**Q.** What about the GI50 (Malme-3M) of the same molecule?
**A.** The GI50 was 20.8 µM (inactive).

**Q.** And the GI50 (NCI-H226)?
**A.** Its GI50 is 3.73 µM (inactive).

**Q.** What about the GI50 (NCI-H23) of the same molecule?
**A.** The GI50 was 21.8 µM (inactive).

**Q.** What about the GI50 (NCI-H460) of the same molecule?
**A.** Its GI50 is 14.7 µM (inactive).

**Q.** And the GI50 (NCI-H522)?
**A.** Its GI50 is 19.2 µM (inactive).

**Q.** What about the GI50 (NCI/ADR-RES) of the same molecule?
**A.** Its GI50 is 22.9 µM (inactive).

**Q.** What about the GI50 (OVCAR-3) of the same molecule?
**A.** Its GI50 is 13.5 µM (inactive).

**Q.** What about the GI50 (OVCAR-4) of the same molecule?
**A.** The GI50 was 18.1 µM (inactive).

**Q.** What about the GI50 (OVCAR-8) of the same molecule?
**A.** The GI50 was 24.1 µM (inactive).

**Q.** And the GI50 (PC-3)?
**A.** The GI50 was 14.4 µM (inactive).

**Q.** What about the GI50 (RPMI-8226) of the same molecule?
**A.** The GI50 was 14 µM (inactive).

**Q.** What about the GI50 (RXF 393) of the same molecule?
**A.** The GI50 was 4.33 µM (inactive).

**Q.** And the GI50 (SF-268)?
**A.** The GI50 was 11.2 µM (inactive).

**Q.** And the GI50 (SF-295)?
**A.** The GI50 was 17.2 µM (inactive).

**Q.** And the GI50 (SF-539)?
**A.** Its GI50 is 12.1 µM (inactive).

**Q.** And the GI50 (SK-MEL-28)?
**A.** The GI50 was 18 µM (inactive).

**Q.** What about the GI50 (SK-MEL-5) of the same molecule?
**A.** The GI50 was 12.6 µM (inactive).

**Q.** And the GI50 (SNB-19)?
**A.** Its GI50 is 16.4 µM (inactive).

**Q.** And the GI50 (SNB-75)?
**A.** Its GI50 is 17 µM (inactive).

**Q.** What about the GI50 (SR) of the same molecule?
**A.** The GI50 was 11.3 µM (inactive).

**Q.** And the GI50 (SW-620)?
**A.** The GI50 was 24.8 µM (inactive).

**Q.** What about the GI50 (T47D) of the same molecule?
**A.** Its GI50 is 15.8 µM (inactive).

**Q.** What about the GI50 (TK-10) of the same molecule?
**A.** The GI50 was 23.6 µM (inactive).

**Q.** And the GI50 (U-251)?
**A.** Its GI50 is 23.5 µM (inactive).

**Q.** What about the GI50 (UACC-257) of the same molecule?
**A.** Its GI50 is 18 µM (inactive).

**Q.** And the GI50 (UACC-62)?
**A.** The GI50 was 15.6 µM (inactive).

**Q.** And the GI50 (UO-31)?
**A.** Its GI50 is 16.1 µM (inactive).
